Source: US10597388B2, “Pyridazinone herbicides” (FMC CORPORATION, priority 2014, dated 2020)

How the values were obtained:
Assay in all cases: Test D controlled growth environment herbicide test, pre- and postemergence
Type in all cases: in vivo
[1] = test system: blackgrass (Alopecurus myosuroides)
Method in brief: (§1)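 Species sown in silt loam and sprayed preemergence, or grown in peat-based medium to 2–18 cm (1- to 4-leaf stage) and sprayed postemergence, with compounds in non-phytotoxic solvent plus surfactant. Visual injury scored versus controls after 14–21 d in a controlled environment, 0 (no effect) to 100 (complete control).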

[2] = test system: chickweed (common chickweed, Stellaria media)
Method in brief: as §1

[3] = test system: barley, winter (winter barley, Hordeum vulgare)
Method in brief: as §1

[4] = test system: mustard, wild (wild mustard, Sinapis arvensis)
Method in brief: as §1

[5] = test system: windgrass (Apera spica-venti)
Method in brief: as §1

[6] = test system: foxtail, green (green foxtail, Setaria viridis)
Method in brief: as §1

[7] = test system: oat, wild (wild oat, Avena fatua)
Method in brief: as §1

[8] = test system: bromegrass, downy (downy bromegrass, Bromus tectorum)
Method in brief: as §1

[9] = test system: chamomile (scentless chamomile, Matricaria inodora)
Method in brief: as §1

[10] = test system: field poppy (Papaver rhoeas)
Method in brief: as §1

[11] = test system: wheat, winter (winter wheat, Triticum aestivum)
Method in brief: as §1

[12] = test system: pigweed (Amaranthus retroflexus)
Method in brief: as §1

[13] = test system: wheat, spring (spring wheat, Triticum aestivum)
Method in brief: as §1

[14] = test system: lambsquarters (Chenopodium album)
Method in brief: as §1

[15] = Postemergence, 31 g ai/ha, scale 0 to 100 (0 no effect, 100 complete control)
[16] = Postemergence, 125 g ai/ha, visual rating on scale 0 (no effect) to 100 (complete control), 14 to 21 d
[17] = Postemergence, 250 g ai/ha, scale 0 to 100 (0 no effect, 100 complete control)
[18] = Preemergence, 62 g ai/ha, scale 0 to 100 (0 no effect, 100 complete control)
[19] = Preemergence, 125 g ai/ha, scale 0 to 100 (0 no effect, 100 complete control)
[20] = Preemergence, 250 g ai/ha, scale 0 to 100, 0 no effect, 100 complete control
[21] = postemergence, 62 g ai/ha, scale 0 to 100, 0 no effect, 100 complete control

## COC(=O)Oc1c(C)nn(C)c(=O)c1-c1c(C)sc2ccc(C)cc12 [Compound 80]
[1]; [15]
  Blackgrass plant response rating: 75
[1]; [16]
  Plant response rating, Blackgrass: 90
[1]; [17]
  Plant response rating, Blackgrass: 90
[1]; Preemergence, 31 g ai/ha
  Plant response rating (scale of 0 to 100), Blackgrass: 70
[1]; [18]
  Plant response rating, Blackgrass: 75
[1]; [19]
  Plant response rating, Blackgrass: 80
[1]; [20]
  Plant response rating, Blackgrass: 85
[1]; [21]
  Plant response rating, Blackgrass: 80
[2]; [15]
  Chickweed plant response rating: 90
[2]; [16]
  Plant response rating, Chickweed: 100
[2]; [17]
  Plant response rating, Chickweed: 100
[2]; Preemergence, 31 g ai/ha
  Plant response rating (scale of 0 to 100), Chickweed: 100
[2]; [18]
  Plant response rating, Chickweed: 100
[2]; [19]
  Plant response rating, Chickweed: 100
[2]; [20]
  Plant response rating, Chickweed: 100
[2]; [21]
  Plant response rating, Chickweed: 100
[3]; [15]
  Barley, Winter plant response rating: 0
[3]; [16]
  Plant response rating, Barley, Winter: 5
[3]; [17]
  Plant response rating, Barley, Winter: 15
[3]; Preemergence, 31 g ai/ha
  Plant response rating (scale of 0 to 100), Barley, Winter: 0
[3]; [18]
  Plant response rating, Barley, Winter: 0
[3]; [19]
  Plant response rating, Barley, Winter: 15
[3]; [20]
  Plant response rating, Barley, Winter: 45
[3]; [21]
  Plant response rating, Barley, Winter: 0
[4]; [15]
  Mustard, Wild plant response rating: 35
[4]; [16]
  Plant response rating, Mustard, Wild: 70
[4]; [17]
  Plant response rating, Mustard, Wild: 100
[4]; Preemergence, 31 g ai/ha
  Plant response rating (scale of 0 to 100), Mustard, Wild: 0
[4]; [18]
  Plant response rating, Mustard, Wild: 0
[4]; [19]
  Plant response rating, Mustard, Wild: 0
[4]; [20]
  Plant response rating, Mustard, Wild: 0
[4]; [21]
  Plant response rating, Mustard, Wild: 50
[5]; [15]
  Windgrass plant response rating: 75
[5]; [16]
  Plant response rating, Windgrass: 95
[5]; [17]
  Plant response rating, Windgrass: 98
[5]; Preemergence, 31 g ai/ha
  Plant response rating (scale of 0 to 100), Windgrass: 75
[5]; [18]
  Plant response rating, Windgrass: 90
[5]; [19]
  Plant response rating, Windgrass: 95
[5]; [20]
  Plant response rating, Windgrass: 98
[5]; [21]
  Plant response rating, Windgrass: 90
[6]; [15]
  Foxtail, Green plant response rating: 70
[6]; [16]
  Plant response rating, Foxtail, Green: 90
[6]; [17]
  Plant response rating, Foxtail, Green: 95
[6]; Preemergence, 31 g ai/ha
  Plant response rating (scale of 0 to 100), Foxtail, Green: 20
[6]; [18]
  Plant response rating, Foxtail, Green: 80
[6]; [19]
  Plant response rating, Foxtail, Green: 100
[6]; [20]
  Plant response rating, Foxtail, Green: 100
[6]; [21]
  Plant response rating, Foxtail, Green: 90
[7]; [15]
  Oat, Wild plant response rating: 95
[7]; [16]
  Plant response rating, Oat, Wild: 100
[7]; [17]
  Plant response rating, Oat, Wild: 100
[7]; Preemergence, 31 g ai/ha
  Plant response rating (scale of 0 to 100), Oat, Wild: 85
[7]; [18]
  Plant response rating, Oat, Wild: 90
[7]; [19]
  Plant response rating, Oat, Wild: 90
[7]; [20]
  Plant response rating, Oat, Wild: 95
[7]; [21]
  Plant response rating, Oat, Wild: 98
[8]; [15]
  Bromegrass, Downy plant response rating: 55
[8]; [16]
  Plant response rating, Bromegrass, Downy: 70
[8]; [17]
  Plant response rating, Bromegrass, Downy: 75
[8]; Preemergence, 31 g ai/ha
  Plant response rating (scale of 0 to 100), Bromegrass, Downy: 30
[8]; [18]
  Plant response rating, Bromegrass, Downy: 35
[8]; [19]
  Plant response rating, Bromegrass, Downy: 75
[8]; [20]
  Plant response rating, Bromegrass, Downy: 85
[8]; [21]
  Plant response rating, Bromegrass, Downy: 65
[9]; [15]
  Chamomile plant response rating: 80
[9]; [16]
  Plant response rating, Chamomile: 100
[9]; [17]
  Plant response rating, Chamomile: 100
[9]; Preemergence, 31 g ai/ha
  Plant response rating (scale of 0 to 100), Chamomile: 95
[9]; [18]
  Plant response rating, Chamomile: 100
[9]; [19]
  Plant response rating, Chamomile: 100
[9]; [20]
  Plant response rating, Chamomile: 100
[9]; [21]
  Plant response rating, Chamomile: 95
[10]; [15]
  Field Poppy plant response rating: 60
[10]; [16]
  Plant response rating, Field Poppy: 100
[10]; [17]
  Plant response rating, Field Poppy: 100
[10]; Preemergence, 31 g ai/ha
  Plant response rating (scale of 0 to 100), Field Poppy: 90
[10]; [18]
  Plant response rating, Field Poppy: 100
[10]; [19]
  Plant response rating, Field Poppy: 100
[10]; [20]
  Plant response rating, Field Poppy: 100
[10]; [21]
  Plant response rating, Field Poppy: 80
[11]; [15]
  Wheat, Winter plant response rating: 0
[11]; [16]
  Plant response rating, Wheat, Winter: 5
[11]; [17]
  Plant response rating, Wheat, Winter: 15
[11]; Preemergence, 31 g ai/ha
  Plant response rating (scale of 0 to 100), Wheat, Winter: 0
[11]; [18]
  Plant response rating, Wheat, Winter: 0
[11]; [19]
  Plant response rating, Wheat, Winter: 0
[11]; [20]
  Plant response rating, Wheat, Winter: 20
[11]; [21]
  Plant response rating, Wheat, Winter: 0
[12]; [15]
  Pigweed plant response rating: 100
[12]; [16]
  Plant response rating, Pigweed: 100
[12]; [17]
  Plant response rating, Pigweed: 100
[12]; Preemergence, 31 g ai/ha
  Plant response rating (scale of 0 to 100), Pigweed: 100
[12]; [18]
  Plant response rating, Pigweed: 100
[12]; [19]
  Plant response rating, Pigweed: 100
[12]; [20]
  Plant response rating, Pigweed: 100
[12]; [21]
  Plant response rating, Pigweed: 100
[13]; [15]
  Wheat, Spring plant response rating: 0
[13]; [16]
  Plant response rating, Wheat, Spring: 15
[13]; [17]
  Plant response rating, Wheat, Spring: 30
[13]; Preemergence, 31 g ai/ha
  Plant response rating (scale of 0 to 100), Wheat, Spring: 0
[13]; [18]
  Plant response rating, Wheat, Spring: 0
[13]; [19]
  Plant response rating, Wheat, Spring: 25
[13]; [20]
  Plant response rating, Wheat, Spring: 35
[13]; [21]
  Plant response rating, Wheat, Spring: 10
[14]; [15]
  Lambsquarters plant response rating: 95
[14]; [16]
  Plant response rating, Lambsquarters: 100
[14]; [17]
  Plant response rating, Lambsquarters: 100
[14]; Preemergence, 31 g ai/ha
  Plant response rating (scale of 0 to 100), Lambsquarters: 100
[14]; [18]
  Plant response rating, Lambsquarters: 100
[14]; [19]
  Plant response rating, Lambsquarters: 100
[14]; [20]
  Plant response rating, Lambsquarters: 100
[14]; [21]
  Plant response rating, Lambsquarters: 100
